Results: patent US20190008973A1, “INTRALIPID-IODINE FOR IMAGING” (priority 2017, published 2019)
“Also recorded” adds a separate entry of the source. Counter-ions that a name gives are not always drawn. Like-named read-outs stand apart in the source and are kept apart here.

Columns and labels:
PLA(2) and PLC = settings: rat, in vivo; cited from earlier work
hippocampus = settings: cited from earlier work
hippocampal slices = settings: BADGE 100 microM, CHX 30 microM; cited from earlier work
spinal anaesthesia = settings: spinal with 40 mg CP 1%; outpatient knee arthroscopy; versus general anaesthesia 142 min, P=0.0047; cited from earlier work
post operative delirium = test: Lipid Emulsion Treatment of post operative delirium/POCD, 4 case reports; format: in vivo, human; settings: case 1, 60 min
[1] = system: post ischaemic stunned myocardium; settings: dog, in vivo; cited from earlier work
[2] = system: ischemia/reperfusion injury; settings: cited from earlier work
[3] = system: ischemia-reperfusion (IR) injury; settings: sham-operated hearts; cited from earlier work
[4] = system: soft tissue anesthesia (STA); settings: in vivo; cited from earlier work
[5] = system: cardiac and regional blood flow; settings: propofol 4 mg/kg then 0.6 mg/kg/min; Intralipid 0.25 ml/kg then 0.06 ml/kg/min; cited from earlier work
[6] = system: propofol-mediated hypotension; settings: cited from earlier work
oxygen desaturation = settings: in vivo; cited from earlier work
[7] = system: I/R injury in late pregnancy; settings: rat, in vivo; cited from earlier work
[8] = system: lipid-dependent mitochondrial respiration (carnitine exchange); settings: cited from earlier work
clomipramine toxicity = settings: 8 mL/kg 20% Intralipid or 2 mL/kg 8.4% sodium bicarbonate, n=4; cited from earlier work
[9] = system: bupivacaine cardiotoxicity; design: AUC of total bupivacaine, mean (standard deviation) / AUC of the lipid-un-entrapped bupivacaine portion: concentration or dose not given beside the values; settings: cited from earlier work
brachial plexus [10] = settings: in vivo; cited from earlier work
brachial plexus [11] = settings: 30 ml, cited from earlier work
brachial plexus [12] = settings: in vivo; cited from earlier work; remark: listed apart in the source
total spinal anesthesia [13] = settings: in vivo; cited from earlier work
[14] = system: bupivacaine-induced asystole; settings: cited from earlier work
bupivacaine mortality = settings: cited from earlier work
[15] = plasma-Intralipid mixture, n=3; cited from earlier work
spinal anesthesia = settings: cited from earlier work
total spinal anesthesia [16] = settings: in vivo; cited from earlier work; remark: listed apart in the source
drug overdose = settings: after lipid emulsion; cited from earlier work
brachial plexus [17] = settings: 150 μg clonidine or 200 μg epinephrine with 0.25% bupivacaine; cited from earlier work
[18] = system: cardiac arrest caused by bupivacaine intoxication; settings: epinephrine 10 μg/kg, Intralipid 20% 4 ml/kg, vasopressin 2 IU; cited from earlier work
[19] = system: hemodynamic compromise owing to bupivacaine intoxication; settings: epinephrine 3 μg/kg or Intralipid 20% 2 ml/kg; cited from earlier work
[20] = system: levobupivacaine myocardial toxicity; settings: pig, in vivo; cited from earlier work
brachial plexus [21] = settings: in vivo; cited from earlier work; remark: listed apart in the source
[22] = system: N43 hypothalamic neuronal cells; settings: cited from earlier work
postoperative delirium = settings: postoperative analgesia; cited from earlier work
brachial plexus [23] = settings: in vivo; cited from earlier work; remark: listed apart in the source
axillary plexus = settings: in vivo; cited from earlier work
[24] = system: spinal cord ischemia and reperfusion; settings: intrathecal, cited from earlier work
[25] = molecular target: T1, ATPase of F1 particles from bovine heart mitochondria (Bos taurus, UniProt P00829+P19483); settings: read-out: concentration required for 50% inhibition of ATPase activity; cited from earlier work
T1 construct: F1 particles isolated from bovine heart mitochondria; from tissue; host or cells: bovine heart mitochondria

mitochondrial ATPase = molecular target: T2, mitochondrial ATPase (Homo sapiens, UniProt P06576+P25705); settings: reciprocal plots; cited from earlier work
T2 construct: mitochondrial ATPase prepared by the chloroform extraction method; from tissue; host or cells: mitochondria

traumatic brain injury = settings: cited from earlier work
[26] = system: cocaine- and cocaethylene-induced cardiac depression; settings: 0.25% lipid emulsion or SBE-β-CD; cited from earlier work

Compound: 4-bromophenylacyl bromide [BPB]
- FFA efflux during ischemia-reperfusion injury (PLA(2) and PLC): significantly inhibited FFA efflux

Compound: CCCCCC(O)C=CC=CCCCCCCCC(=O)O (stereo not shown) [13-hydroxyoctadecadienoic acid]
- increase of somatic paired-pulse facilitation (hippocampus): 80%

Compound: O=C1O/C(=C/Br)CCC1c1cccc2ccccc12 (stereo not shown) [BEL, bromoenol lactone]
- FFA efflux during ischemia-reperfusion injury (PLA(2) and PLC): had only minimal effects on FFA efflux

Compound: C[C@@H]1C[C@@H]([C@H](O)CC2CC(=O)NC(=O)C2)C(=O)[C@@H](C)C1 [CHX, cycloheximide]
- effect on neuroprotection by arachidonic acid (hippocampal slices): completely abolished

Compound: CCN(CC)CCOC(=O)c1ccc(N)cc1Cl [CP 1%, Chloroprocaine]
- Time to reaching discharge criteria (spinal anaesthesia): 117 min

Compound: O=C(CCCN1CCC(O)(c2ccc(Cl)cc2)CC1)c1ccc(F)cc1 [Haloperidol]
- agitation after conventional sedatives (post operative delirium): had not improved

Compound: N[C@H](C(=O)O)c1ccc(O)cc1 [Oxfenicine, oxfenicine]
- effect of pretreatment on benefit of Intralipid [1]: completely abolished

Compound: COc1cccc(-c2cc(=O)c3ccccc3o2)c1N [PD98059]
- effect of inhibitor on Intralipid-induced cardioprotection [2]: only partially
- effect of inhibitor on infarct-sparing effect of ILP [3]: only partially

Compound: Cc1ccc(N(CC2=NCCN2)c2cccc(O)c2)cc1 [PM (OraVerse), phentolamine mesylate]
- duration of residual STA [4]: significantly decrease the duration of residual STA
- safety outcomes in school-based dental clinic [4]: improve safety outcomes

Compound: CC(C)c1cccc(C(C)C)c1O [Propofol, propofol]
- cardiac and regional hemodynamic changes [5]: increases in heart rate, coronary and carotid blood flows, and decreases in systemic vascular resistance and dP/dt
- drop in MAP ([6]; 10 mg/kg IV): 55+/−2%
- lowering of MAP ([6]; under chlorisondamine and phenylephrine): 12+/−4%
- odds ratio for oxygen desaturation (oxygen desaturation): 5.22 (95% CI 1.78-15.35)

Compound: O=[N+]([O-])c1ccc2c(c1)S(=O)(=O)C=C2 [Stattic]
- effect of inhibitor on ITLD-induced cardioprotection [7]: fully abolished

Compound: COc1ccc2c(c1)CC[C@@H]1[C@@H]2CC[C@]2(C)[C@@H](NCCCCCCN3C(=O)C=CC3=O)CC[C@@H]12 [U73122]
- FFA efflux during ischemia-reperfusion injury (PLA(2) and PLC): had no observed effect

Compound: CN1[C@H]2CC[C@@H]1[C@@H](C(=O)O)[C@@H](OC(=O)c1ccccc1)C2 [benzoylecgonine]
- lipid-dependent mitochondrial respiration [8]: not

Compound: O=C([O-])O.[Na+] [bicarbonate, sodium bicarbonate]
- circulation in second phase (severe toxicity) (clomipramine toxicity): developed pulseless electrical activity

Compound: CCCCN1CCCCC1C(=O)Nc1c(C)cccc1C (stereo not shown) [bupivacaine]
- AUC of the lipid-un-entrapped bupivacaine portion ([9]; after Intralipid): 97.0(14.5) mg·min/L
- AUC of total bupivacaine, mean (standard deviation) ([9]; after Intralipid): 105.2(13.6) mg·min/L
- un-entrapped AUC lower than total bupivacaine ([9]; after Intralipid): 8%
- AUC of total bupivacaine, mean (standard deviation) ([9]; after Ringer's acetate): 88.1(7.1) mg·min/L
- patients requiring supplementation (brachial plexus [10]): 9 of the 22
- duration of motor block (brachial plexus [11]): 12.94 h
- duration of sensory block (brachial plexus [11]): 11.58 h
- onset of motor block (brachial plexus [11]): 21.45 ± 4.45 min
- onset of sensory block (brachial plexus [11]): 16.85 ± 6.67 min
- muscle relaxation judged as excellent (brachial plexus [12]): 30/49
- mean duration of action (total spinal anesthesia [13]): 1.511 to 3 h
- concentration of bupivacaine in plasma, mean+/−SE ([14]; 30% Intralipid): 212+/−45 micrograms per millilitre
- median dose of bupivacaine producing asystole ([14]; after saline pretreatment): 17.7 milligrams per kilogram
- concentration of bupivacaine in plasma, mean+/−SE ([14]; saline): 93.3+/−7.6 micrograms per millilitre
- dose of bupivacaine required to cause death in 50% of animals (bupivacaine mortality; resuscitation with 30% Intralipid): 18.5 mg/kg
- dose of bupivacaine required to cause death in 50% of animals (bupivacaine mortality; resuscitation with saline): 12.5 mg/kg
- mean lipid:aqueous ratio of concentrations [15]: 11.9+/−1.77
- Duration of procedures it is appropriate for (spinal anesthesia; long acting spinal anesthetic): 2 to 2.5 h
- Onset (spinal anesthesia; spinal anesthetic, longer with isobaric forms): 5 to 10 min
- further time to consciousness (total spinal anesthesia [16]): 65 min
- time to spontaneous respiration (total spinal anesthesia [16]): 120 min

Compound: Cn1c(=O)c2c(ncn2C)n(C)c1=O [caffeine]
- plasma caffeine level (drug overdose): > 120 mg/L

Compound: Clc1cccc(Cl)c1N=C1NCCN1 [clonidine, clonidine hydrochloride]
- duration of block (brachial plexus [17]): 994.2 ± 34.2 min

Compound: CCOC(=O)[C@@H]1C2CCC(C[C@@H]1OC(=O)c1ccccc1)N2C (stereo partly shown) [cocaethylene]
- lipid-dependent mitochondrial respiration [8]: inhibited

Compound: CNC[C@H](O)c1ccc(O)c(O)c1 [epinephrine]
- survival [18]: 71%
- survival [19]: 100%
- duration of block (brachial plexus [17]): 728.3 ± 35.8 min

Compound: CCCCN1CCCC[C@H]1C(=O)Nc1c(C)cccc1C [levobupivacaine]
- haemodynamic effects of IV injection [20]: induced sinus bradycardia and reduced dMAP and LV dP/dtmax
- need for rescue analgesics (brachial plexus [21]): 55%

Compound: CCCCC/C=C\C/C=C\CCCCCCCC(=O)O [linoleic acid]
- palmitic acid-induced inflammation [22]: reduces palmitic acid-induced inflammation

Compound: CCOC(=O)C1(c2ccccc2)CCN(C)CC1 [meperidine]
- delirium incidence (postoperative delirium): significantly higher

Compound: Cc1ncc2n1-c1ccc(Cl)cc1C(c1ccccc1F)=NC2 [midazolam]
- agitation after conventional sedatives (post operative delirium): had not improved

Compound: CCCN1CCCC[C@H]1C(=O)Nc1c(C)cccc1C [ropivacaine]
- patients requiring supplementation (brachial plexus [10]): 8 of the 22
- duration of motor blocks (brachial plexus [23]): 12±5
- duration of sensorial analgesia (brachial plexus [23]): 13.4±6
- mean time of block offset (axillary plexus): 13.5 h
- need for rescue analgesics (brachial plexus [21]): 65%
- duration of motor block (brachial plexus [11]; listed as 0.5% ropivacaine): 8.29 h
- duration of sensory block (brachial plexus [11]; listed as 0.5% ropivacaine): 9.02 h
- onset of motor block (brachial plexus [11]; listed as 0.5% ropivacaine): 22.23 ± 4.05 min
- onset of sensory block (brachial plexus [11]; listed as 0.5% ropivacaine): 17.79 ± 5.03 min
- duration of motor block (brachial plexus [11]; listed as 0.75% ropivacaine): 7.89 h
- duration of sensory block (brachial plexus [11]; listed as 0.75% ropivacaine): 8.87 h
- onset of motor block (brachial plexus [11]; listed as 0.75% ropivacaine): 22.33 ± 5.17 min
- onset of sensory block (brachial plexus [11]; listed as 0.75% ropivacaine): 18.48 ± 6.14 min
- muscle relaxation judged as excellent (brachial plexus [12]): 35/49

Compound: CCCCNc1ccc(C(=O)OCCN(C)C)cc1 [tetracaine]
- neurologically normal animals ([24]; aortic occlusion 25 minutes): 100%
- neurologically normal animals ([24]; aortic occlusion 30 minutes): 86%
- IC50 [25]: 1.1 mM
- kind of inhibition (mitochondrial ATPase): non-competitive

Compound: conjugated linoleic acids [CLA]
- latency to find the hidden MWM platform (traumatic brain injury; CCI-injured, saline 30.7±5.5): 66.8 ± 10.6 s
- latency to find the hidden Morris Water Maze platform (traumatic brain injury; Sham, saline 8.8±1.7): 40.3 ± 13.0 s

Compound: ecgonine
- lipid-dependent mitochondrial respiration [8]: not

Compound: sulfobutylether-β-cyclodextrin [SBE-β-CD]
- cardiac depression in Langendorff hearts [26]: mild cardio depressant effect; also recorded: mild cardiodepressant effect
